Measured values: patent US20090264384A1, “INDOLE, BENZIMIDAZOLE, AND BENZOLACTAM BORONIC ACID COMPOUNDS, ANALOGS THEREOF AND METHODS OF USE THEREOF” (Nuada, Inc., priority 2004, published 2009)

What was measured:
[1] = system: BZD (central); test: BZD (central) binding assay; parameters: species or system rat; details: Hill coefficient, reference compound
[2] = molecular target: K^+V channel; test: K^+V channel binding assay; parameters: species or system rat
[3] = molecular target: T1, B2(h) (Homo sapiens, UniProt P30411); test: B2(h) binding assay
T1 construct: expressed in transfected cells; host or cells: CHO cells

[4] = molecular target: T2, NK2(h) (Homo sapiens, UniProt P21452); test: NK2(h) binding assay
T2 construct: expressed in transfected cells; host or cells: CHO cells

[5] = system: GABA (non-selective); format: binding, rat; details: Hill coefficient, reference compound
[6] = molecular target: T3, Choline transporter (Rattus norvegicus, UniProt Q9JMD7); test: Choline transporter binding assay; details: reference compound
T3 construct: rat striatum; from tissue; host or cells: rat striatum
T3 sequence (Q9JMD7 1-580): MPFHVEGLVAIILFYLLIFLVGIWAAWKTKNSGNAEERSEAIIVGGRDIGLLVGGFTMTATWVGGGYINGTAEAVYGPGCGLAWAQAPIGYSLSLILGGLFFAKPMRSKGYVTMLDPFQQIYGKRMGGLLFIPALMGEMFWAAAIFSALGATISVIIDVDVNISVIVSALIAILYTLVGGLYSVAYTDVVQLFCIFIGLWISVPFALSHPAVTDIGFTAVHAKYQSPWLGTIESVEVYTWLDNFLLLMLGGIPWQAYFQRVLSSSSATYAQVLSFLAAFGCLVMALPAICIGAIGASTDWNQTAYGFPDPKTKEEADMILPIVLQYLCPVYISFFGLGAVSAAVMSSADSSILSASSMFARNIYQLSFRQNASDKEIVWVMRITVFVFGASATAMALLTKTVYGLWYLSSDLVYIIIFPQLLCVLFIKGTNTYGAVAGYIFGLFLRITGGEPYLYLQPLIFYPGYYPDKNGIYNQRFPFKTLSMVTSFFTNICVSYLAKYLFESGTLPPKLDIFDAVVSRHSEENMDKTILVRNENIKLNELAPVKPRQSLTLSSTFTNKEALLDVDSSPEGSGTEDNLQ

[7] = system: 5-HT (non-selective); test: 5-HT (non-selective) binding assay; parameters: species or system rat; details: Hill coefficient, reference compound
[8] = system: Cl-channel; test: Cl-channel binding assay; parameters: species or system rat; details: Hill coefficient, reference compound
[9] = system: Y (non-selective); test: Y (non-selective) binding assay; parameters: species or system rat; details: reference compound
[10] = molecular target: T4, Androgen(h) (AR) (Homo sapiens, UniProt P10275, T878A); test: Androgen(h) (AR) binding assay
T4 construct: LNCaP cells; endogenous in cells; host or cells: LNCaP cells (cytosol)

[11] = molecular target: T5, H2(h) (Homo sapiens, UniProt P25021); test: H2(h) binding assay; details: Hill coefficient, reference compound
T5 construct: expressed in transfected cells; host or cells: CHO cells

[12] = molecular target: T6, NK1(h) (Homo sapiens, UniProt P25103); test: NK1(h) binding assay; details: Hill coefficient, reference compound
T6 construct: NK1(h); U-373MG cells; [Sar^9,Met(O2)^11]-SP; Heuillet et al. (1993); endogenous in cells; host or cells: U-373MG cells

[13] = molecular target: T7, Tyrosine hydroxylase (Rattus norvegicus, UniProt P04177); test: Tyrosine hydroxylase enzyme assay; format: biochemical; details: Tyrosine hydroxylase
T7 construct: rat striatum; from tissue; host or cells: rat striatum

[14] = molecular target: T8, GABA transaminase (Rattus norvegicus, UniProt P50554); test: GABA transaminase enzyme assay; format: biochemical; details: GABA transaminase
T8 construct: rat brain; from tissue; host or cells: rat brain

[15] = molecular target: Ca^2+ channel (L, verapamil site) (phenylalkylamines); test: Ca^2+ channel (L, verapamil site) binding assay; parameters: species or system rat
[16] = molecular target: T9, NK3(h) (Homo sapiens, UniProt P29371); test: NK3(h) binding assay; details: Hill coefficient, reference compound
T9 construct: expressed in transfected cells; host or cells: CHO cells

[17] = system: M (non-selective); test: M (non-selective) binding assay; parameters: species or system rat
[18] = molecular target: T10, NE transporter(h) (Homo sapiens, UniProt P23975); test: NE transporter(h) binding assay; details: Hill coefficient, reference compound
T10 construct: expressed in transfected cells; host or cells: MDCK cells

[19] = molecular target: T11, DA transporter(h) (Homo sapiens, UniProt Q01959); test: DA transporter(h) binding assay
T11 construct: expressed in transfected cells; host or cells: CHO cells

[20] = molecular target: T12, CRF1 (Rattus norvegicus, UniProt P35353); test: CRF1 binding assay; details: Hill coefficient, reference compound
T12 construct: from tissue; host or cells: rat pituitary gland

[21] = molecular target: Ca^2+ channel (L, diltiazem site) (benzothiazepines) (Rattus norvegicus, UniProt P22002); test: Ca^2+ channel (L, diltiazem site) binding assay
[22] = system: σ (non-selective); test: σ (non-selective) binding assay; parameters: species or system rat
[23] = molecular target: T13, D2S(h) (Homo sapiens, UniProt P14416); test: biochemical; format: binding
T13 construct: expressed in transfected cells; host or cells: CHO cells

[24] = molecular target: T14, AT2(h) (Homo sapiens, UniProt P50052); test: AT2(h) binding assay; details: Hill coefficient, reference compound
T14 construct: expressed in transfected cells; host or cells: Hela cells

[25] = molecular target: T15, AT1(h) (Homo sapiens, UniProt P30556); test: AT1(h) binding assay; details: Hill coefficient, reference compound
T15 construct: expressed in transfected cells; host or cells: CHO cells

[26] = molecular target: T16, ATPase (Na^+/K^+) (Canis lupus familiaris, UniProt P50997); test: ATPase (Na^+/K^+) enzyme assay; format: biochemical, dog; details: ATPase (Na^+/K^+)
T16 construct: dog kidney; from tissue; host or cells: dog kidney

[27] = molecular target: T17, β1(h) (Homo sapiens, UniProt P08588); test: β1(h) binding assay; details: Hill coefficient, reference compound
T17 construct: expressed in transfected cells; host or cells: HEK-293 cells

[28] = molecular target: T18, V2(h) (Homo sapiens, UniProt P30518); test: V2(h) binding assay
T18 construct: expressed in transfected cells; host or cells: CHO cells

[29] = molecular target: T19, Phosphodiesterase 2(h) (Homo sapiens, UniProt O00408); test: Phosphodiesterase 2(h) enzyme assay; format: biochemical; details: Phosphodiesterase 2(h)
T19 construct: differentiated U-; endogenous in cells; host or cells: differentiated U-937 cells

[30] = system: TRH; test: TRH binding assay; parameters: species or system rat; details: reference compound
[31] = molecular target: T20, ETB(h) (Homo sapiens, UniProt P24530); test: ETB(h) binding assay; details: Hill coefficient, reference compound
T20 construct: expressed in transfected cells; host or cells: CHO cells

[32] = molecular target: T21, ETA(h) (Homo sapiens, UniProt P25101); test: ETA(h) binding assay
T21 construct: expressed in transfected cells; host or cells: CHO cells

[33] = molecular target: T22, 5-HT transporter(h) (Homo sapiens, UniProt P31645); test: 5-HT transporter(h) binding assay; details: Hill coefficient, reference compound
T22 construct: expressed in transfected cells; host or cells: HEK-293 cells

[34] = molecular target: N (neuronal) (α-BGTX-insensitive) (Rattus norvegicus, UniProt P09483+P12390); test: N (neuronal) (α-BGTX-insensitive) binding assay; details: Hill coefficient, reference compound
[35] = system: H3; test: H3 binding assay; parameters: species or system rat

T7 sequence (P04177 whole entry): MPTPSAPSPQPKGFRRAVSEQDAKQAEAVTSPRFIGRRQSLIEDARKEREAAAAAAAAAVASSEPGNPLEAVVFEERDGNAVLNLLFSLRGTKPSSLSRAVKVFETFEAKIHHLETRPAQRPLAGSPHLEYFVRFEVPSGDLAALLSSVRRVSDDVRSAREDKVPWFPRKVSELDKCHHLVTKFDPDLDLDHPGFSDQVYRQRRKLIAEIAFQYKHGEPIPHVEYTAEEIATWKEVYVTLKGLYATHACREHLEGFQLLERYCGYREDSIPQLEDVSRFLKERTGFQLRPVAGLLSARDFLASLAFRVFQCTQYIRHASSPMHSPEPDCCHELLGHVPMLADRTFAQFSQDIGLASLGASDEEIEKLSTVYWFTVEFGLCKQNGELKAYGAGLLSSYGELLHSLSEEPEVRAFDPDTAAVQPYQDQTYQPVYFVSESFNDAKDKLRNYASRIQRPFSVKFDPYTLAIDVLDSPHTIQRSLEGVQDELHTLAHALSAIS
T19 sequence (O00408 whole entry): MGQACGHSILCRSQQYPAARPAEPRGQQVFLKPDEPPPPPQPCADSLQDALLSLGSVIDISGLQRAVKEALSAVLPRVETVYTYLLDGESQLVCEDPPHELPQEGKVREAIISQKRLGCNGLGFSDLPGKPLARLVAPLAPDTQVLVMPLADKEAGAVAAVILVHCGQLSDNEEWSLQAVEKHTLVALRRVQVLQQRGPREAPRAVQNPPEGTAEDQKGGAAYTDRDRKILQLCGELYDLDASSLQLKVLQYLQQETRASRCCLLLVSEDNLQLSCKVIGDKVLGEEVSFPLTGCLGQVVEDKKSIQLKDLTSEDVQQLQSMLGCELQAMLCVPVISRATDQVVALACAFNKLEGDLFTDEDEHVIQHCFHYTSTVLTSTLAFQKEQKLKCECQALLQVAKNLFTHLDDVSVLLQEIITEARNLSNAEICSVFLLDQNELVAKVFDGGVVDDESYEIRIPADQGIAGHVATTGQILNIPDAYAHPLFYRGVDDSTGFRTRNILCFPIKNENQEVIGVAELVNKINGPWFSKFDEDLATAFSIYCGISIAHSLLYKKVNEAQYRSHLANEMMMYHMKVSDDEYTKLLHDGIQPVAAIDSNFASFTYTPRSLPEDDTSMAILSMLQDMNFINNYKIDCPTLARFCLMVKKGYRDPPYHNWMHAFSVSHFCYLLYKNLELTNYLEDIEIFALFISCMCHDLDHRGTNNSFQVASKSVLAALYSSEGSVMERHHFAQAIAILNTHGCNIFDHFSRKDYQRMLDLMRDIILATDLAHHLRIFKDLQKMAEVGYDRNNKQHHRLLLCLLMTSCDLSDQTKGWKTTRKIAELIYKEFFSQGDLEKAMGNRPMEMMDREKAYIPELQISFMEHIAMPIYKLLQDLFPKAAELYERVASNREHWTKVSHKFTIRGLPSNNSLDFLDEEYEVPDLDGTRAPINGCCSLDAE
T8 sequence (P50554 28-500): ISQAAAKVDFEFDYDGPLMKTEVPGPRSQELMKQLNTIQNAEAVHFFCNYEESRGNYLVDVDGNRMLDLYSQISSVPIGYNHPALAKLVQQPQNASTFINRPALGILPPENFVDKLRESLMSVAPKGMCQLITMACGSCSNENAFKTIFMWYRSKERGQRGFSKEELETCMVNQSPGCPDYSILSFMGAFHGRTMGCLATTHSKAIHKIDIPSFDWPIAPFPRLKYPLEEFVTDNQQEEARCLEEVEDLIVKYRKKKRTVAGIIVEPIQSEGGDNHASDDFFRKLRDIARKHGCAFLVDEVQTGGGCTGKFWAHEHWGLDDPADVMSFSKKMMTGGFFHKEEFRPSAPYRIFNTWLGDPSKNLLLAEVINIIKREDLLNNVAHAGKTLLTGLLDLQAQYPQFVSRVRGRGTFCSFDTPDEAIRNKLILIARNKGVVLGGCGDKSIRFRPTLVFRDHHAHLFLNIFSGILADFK
T22 sequence (P31645 whole entry): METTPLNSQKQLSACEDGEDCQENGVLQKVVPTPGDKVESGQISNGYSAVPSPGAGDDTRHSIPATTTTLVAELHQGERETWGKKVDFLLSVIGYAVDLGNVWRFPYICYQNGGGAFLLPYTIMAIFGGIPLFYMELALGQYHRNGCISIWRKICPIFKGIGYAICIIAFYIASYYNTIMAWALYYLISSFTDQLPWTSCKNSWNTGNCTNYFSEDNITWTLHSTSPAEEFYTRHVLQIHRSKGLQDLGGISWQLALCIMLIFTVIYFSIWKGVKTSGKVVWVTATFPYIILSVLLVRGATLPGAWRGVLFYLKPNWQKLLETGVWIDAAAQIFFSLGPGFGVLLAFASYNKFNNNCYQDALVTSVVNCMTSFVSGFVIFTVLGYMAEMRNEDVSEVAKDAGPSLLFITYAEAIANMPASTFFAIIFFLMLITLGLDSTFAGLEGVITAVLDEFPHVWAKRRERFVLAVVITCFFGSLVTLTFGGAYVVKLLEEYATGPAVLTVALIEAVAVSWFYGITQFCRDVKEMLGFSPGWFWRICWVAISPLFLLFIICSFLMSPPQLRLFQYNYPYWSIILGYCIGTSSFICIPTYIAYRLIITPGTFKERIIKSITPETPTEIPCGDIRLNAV
T15 sequence (P30556 whole entry): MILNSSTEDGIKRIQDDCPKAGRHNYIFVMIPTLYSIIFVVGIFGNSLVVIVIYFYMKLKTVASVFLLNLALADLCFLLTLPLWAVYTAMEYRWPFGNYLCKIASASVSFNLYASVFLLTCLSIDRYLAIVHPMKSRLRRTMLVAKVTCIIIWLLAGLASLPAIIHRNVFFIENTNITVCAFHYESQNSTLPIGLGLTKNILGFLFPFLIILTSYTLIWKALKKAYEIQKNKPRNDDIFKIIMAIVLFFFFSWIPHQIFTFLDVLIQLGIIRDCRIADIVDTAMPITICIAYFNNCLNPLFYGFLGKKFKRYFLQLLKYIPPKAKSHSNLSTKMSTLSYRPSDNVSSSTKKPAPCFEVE
T12 sequence (P35353 24-415): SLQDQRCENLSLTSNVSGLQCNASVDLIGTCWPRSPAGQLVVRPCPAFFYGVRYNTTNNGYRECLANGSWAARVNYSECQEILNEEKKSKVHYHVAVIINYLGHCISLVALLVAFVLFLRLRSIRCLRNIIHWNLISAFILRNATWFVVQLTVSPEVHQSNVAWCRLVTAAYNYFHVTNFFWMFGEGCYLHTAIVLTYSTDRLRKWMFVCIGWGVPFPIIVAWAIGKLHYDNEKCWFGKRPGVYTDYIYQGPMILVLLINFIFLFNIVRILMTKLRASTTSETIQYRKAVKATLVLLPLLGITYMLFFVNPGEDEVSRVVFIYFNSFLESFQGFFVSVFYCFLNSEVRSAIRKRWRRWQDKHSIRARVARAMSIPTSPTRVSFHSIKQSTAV
T5 sequence (P25021 whole entry): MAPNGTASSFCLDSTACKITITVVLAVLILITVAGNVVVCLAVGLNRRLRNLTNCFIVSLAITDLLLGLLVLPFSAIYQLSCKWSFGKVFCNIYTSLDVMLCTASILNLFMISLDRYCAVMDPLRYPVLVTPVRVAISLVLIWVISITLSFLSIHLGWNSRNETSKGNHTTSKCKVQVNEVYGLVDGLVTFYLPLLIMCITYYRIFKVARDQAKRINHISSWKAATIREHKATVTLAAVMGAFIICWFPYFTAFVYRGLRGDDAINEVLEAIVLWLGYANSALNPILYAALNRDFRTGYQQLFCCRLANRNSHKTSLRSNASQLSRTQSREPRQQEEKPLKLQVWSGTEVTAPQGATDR
T11 sequence (Q01959 whole entry): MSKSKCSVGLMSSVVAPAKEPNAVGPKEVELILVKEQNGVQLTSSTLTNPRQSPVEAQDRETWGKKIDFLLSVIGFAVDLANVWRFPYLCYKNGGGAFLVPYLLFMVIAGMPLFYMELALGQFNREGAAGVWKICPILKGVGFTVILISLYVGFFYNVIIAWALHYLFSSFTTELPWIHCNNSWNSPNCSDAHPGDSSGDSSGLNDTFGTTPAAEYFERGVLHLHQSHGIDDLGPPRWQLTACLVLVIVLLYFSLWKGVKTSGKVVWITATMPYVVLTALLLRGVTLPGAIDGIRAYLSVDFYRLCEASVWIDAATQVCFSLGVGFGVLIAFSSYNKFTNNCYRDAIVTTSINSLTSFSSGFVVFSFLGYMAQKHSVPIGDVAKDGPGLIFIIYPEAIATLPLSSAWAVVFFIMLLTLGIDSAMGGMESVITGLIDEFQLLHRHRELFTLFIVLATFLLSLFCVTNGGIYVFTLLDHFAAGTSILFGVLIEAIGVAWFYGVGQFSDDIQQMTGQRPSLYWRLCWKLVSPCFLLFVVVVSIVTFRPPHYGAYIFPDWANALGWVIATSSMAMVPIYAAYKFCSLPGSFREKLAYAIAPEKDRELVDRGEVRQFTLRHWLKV
T14 sequence (P50052 whole entry): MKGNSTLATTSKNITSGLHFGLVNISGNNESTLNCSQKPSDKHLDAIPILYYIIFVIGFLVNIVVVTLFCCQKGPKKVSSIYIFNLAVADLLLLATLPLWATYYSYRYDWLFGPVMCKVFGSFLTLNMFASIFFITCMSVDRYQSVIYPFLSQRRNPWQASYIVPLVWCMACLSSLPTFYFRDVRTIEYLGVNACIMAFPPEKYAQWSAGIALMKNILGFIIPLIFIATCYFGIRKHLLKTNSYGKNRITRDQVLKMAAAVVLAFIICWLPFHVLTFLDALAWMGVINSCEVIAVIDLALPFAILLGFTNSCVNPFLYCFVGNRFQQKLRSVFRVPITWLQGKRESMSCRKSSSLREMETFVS

CN1C(=O)CN=C(c2ccccc2)c2cc(Cl)ccc21 [diazepam, reference compound] gave a nH [1] of 1.2.

α-dendrotoxin showed a Ki [2] of 1.1 nM and a nH [2] of 3.1.

With NPC 567 [reference compound] the nH [3] was 0.6.

[N1e^10]-NKA(4-10) [reference compound] was tested, and the nH [4] was 0.7.

Compound NCCCC(=O)O [GAGA, GABA, reference compound] has a nH [5] of 1.3.

In the case of C[N+]1(C)CCOC(O)(c2ccc(-c3ccc(C4(O)C[N+](C)(C)CCO4)cc3)cc2)C1.[Br-].[Br-] (stereo not shown) [hemicholinium-3], the nH ([6]; Hill coefficient) is reported as 0.7, the IC50 [6] is reported as 8 nM and the Ki ([6]; Cheng Prusoff) is reported as 5.5 nM.

With NCCc1c[nH]c2ccc(O)cc12 [serotonin, reference compound] the nH [7] was 0.9.

C=C(C)[C@@H]1[C@H]2OC(=O)[C@@H]1[C@]1(O)C[C@H]3O[C@]34C(=O)O[C@H]2[C@]14C [picrotoxinin, reference compound] showed a nH [8] of 0.9.

Compound NPY has a nH ([9]; Hill coefficient) of 1.3 and an IC50 [9] of 0.99 nM.

C[C@]1(O)CC[C@H]2[C@@H]3CCC4=CC(=O)CCC4=C3C=C[C@@]21C [methyltrienolone, reference compound] was tested, and the nH [10] was 1.5.

CN/C(=N/CCSCc1nc[nH]c1C)NC#N [cimetidine, reference compound] gave a nH [11] of 0.9.

For “[Sar^9,Met(O2)^11]-SP [reference compound]”, the nH [12] was 0.9.

Work on N[C@@H](Cc1ccc(O)c(I)c1)C(=O)O [3-iodo L-tyrosine] yielded a nH ([13]; Hill coefficient) of 1.1 and an IC50 ([13]; reference compound) of 990 nM.

Compound NOCC(=O)O [AoAA] has a nH ([14]; Hill coefficient) of 1.1 and an IC50 ([14]; reference compound) of 210 nM.

In the case of COc1ccc(CCN(C)CCCC(C#N)(c2cc(OC)c(OC)c(OC)c2)C(C)C)cc1OC (stereo not shown) [D 600], the Ki [15] is reported as 0.84 nM and the nH [15] is reported as 0.6.

In the case of CC[C@H](NC(=O)c1c(C)c(-c2ccccc2)nc2ccccc12)c1ccccc1 [SB 222200, reference compound], the nH [16] is reported as 1.1.

In the case of CN1[C@@H]2CC[C@H]1C[C@@H](OC(=O)C(CO)c1ccccc1)C2 (stereo partly shown) [atropine, reference compound], the nH [17] is reported as 1.2.

For CNCCCC1c2ccccc2C=Cc2ccccc21 [protriptyline, reference compound], the nH [18] was 1.7.

c1ccc2sc(C3(N4CCCCC4)CCCCC3)cc2c1 [BTCP, reference compound] showed a nH [19] of 0.5.

For CC[C@H](C)[C@H](NC(=O)[C@@H](NC(=O)[C@H](CCC(=O)O)NC(=O)[C@H](CCSC)NC(=O)[C@H](CC(C)C)NC(=O)[C@H](CCCCN)NC(=O)[C@H](CCCNC(=N)N)NC(=O)[C@H](CC(N)=O)NC(=O)[C@H](CO)NC(=O)[C@H](Cc1c[nH]cn1)NC(=O)[C@H](C)NC(=O)[C@H](CCC(N)=O)NC(=O)[C@H](CCC(N)=O)NC(=O)[C@H](C)NC(=O)[C@H](CC(C)C)NC(=O)[C@H](CCC(N)=O)NC(=O)[C@H](CCC(=O)O)NC(=O)[C@H](C)NC(=O)[C@H](CCCNC(=N)N)NC(=O)[C@H](C)NC(=O)[C@H](CCSC)NC(=O)[C@H](CCC(=O)O)NC(=O)[C@H](CC(C)C)NC(=O)[C@@H](NC(=O)[C@H](CCC(=O)O)NC(=O)[C@H](CCCNC(=N)N)NC(=O)[C@H](CC(C)C)NC(=O)[C@H](CC(C)C)NC(=O)[C@H](Cc1c[nH]cn1)NC(=O)[C@H](Cc1ccccc1)NC(=O)[C@@H](NC(=O)[C@H](CC(C)C)NC(=O)[C@H](CC(=O)O)NC(=O)[C@H](CC(C)C)NC(=O)[C@H](CO)NC(=O)[C@@H](NC(=O)[C@@H]1CCCN1C(=O)[C@@H]1CCCN1C(=O)[C@H](CCC(=O)O)NC(=O)[C@H](CCC(=O)O)NC(=O)[C@@H](N)CO)[C@@H](C)CC)[C@@H](C)O)C(C)C)[C@@H](C)CC)C(N)=O [CRF, reference compound], the nH [20] was 0.6.

In the case of COc1ccc([C@@H]2Sc3ccccc3N(CCN(C)C)C(=O)[C@@H]2OC(C)=O)cc1 [diltiazem, reference compound], the nH [21] is reported as 0.9.

In the case of O=C(CCCN1CCC(O)(c2ccc(Cl)cc2)CC1)c1ccc(F)cc1 [haloperidol, reference compound], the nH [22] is reported as 0.6.

Compound (+)butaclamol [reference compound] has a nH [23] of 1.2.

In the case of CNCC(=O)N[C@@H](CCCN=C(N)N)C(=O)N[C@H](C(=O)N[C@@H](Cc1ccc(O)cc1)C(=O)N[C@H](C(=O)N[C@@H](Cc1cnc[nH]1)C(=O)N1CCC[C@H]1C(=O)N[C@@H](C)C(=O)O)C(C)C)C(C)C [saralasin, reference compound], the nH [24] is reported as 0.8 and the nH [25] is reported as 1.1.

Work on C[C@@H]1O[C@@H](O[C@H]2C[C@@H](O)[C@]3(CO)[C@H]4[C@H](O)C[C@]5(C)[C@@H](C6=CC(=O)OC6)CC[C@]5(O)[C@@H]4CC[C@]3(O)C2)[C@H](O)[C@H](O)[C@H]1O [ouabain] yielded a nH ([26]; Hill coefficient) of 1.2 and an IC50 ([26]; reference compound) of 920 nM.

Compound CC(C)NCC(O)COc1ccc(CC(N)=O)cc1 (stereo not shown) [atenolol, reference compound] has a nH [27] of 0.7.

AVP [reference compound] showed a nH [28] of 0.9.

In the case of CCCCCC[C@@H]([C@@H](C)O)n1cnc2c(N)ncnc21 (racemic) [EHNA], the nH ([29]; Hill coefficient) is reported as 0.4 and the IC50 ([29]; reference compound) is reported as 4100 nM.

For TRH, the nH ([30]; Hill coefficient) was 0.9, the IC50 [30] was 49 nM and the Ki ([30]; Cheng Prusoff) was 30 nM.

Compound “endothelin-3 [endothelia-3, reference compound]” has a nH [31] of 2.4.

“endothelin-1 [endothelia-1, reference compound]” was tested, and the nH [32] was 1.1.

CN(C)CCCN1c2ccccc2CCc2ccccc21 [imipramine, reference compound] was tested, and the nH [33] was 1.0.

CN1CCCC1c1cccnc1 (stereo not shown) [nicotine, reference compound] showed a nH [34] of 1.1.

C[C@@H](N)Cc1cnc[nH]1 [(R)a-Me-histamine, (R)α-Me-histamine, reference compound] was tested, and the nH [35] was 1.0.
